Reference: patent US12478680B2, “Hydrogels with biodegradable crosslinking” (ProLynx LLC, priority 2011, dated 2025)

Conditions: pH 7.4

t1/2 for release into solution [min] | Substance
24 | carbonic anhydrase
~20 | myoglobin
